From patent US10857232B2, “Surfactant composition” (Enza Biotech AB, priority 2013, dated 2020)

How the values were obtained:
[1] = literature values [11-13]; cited from earlier work
insulin = insulin (Homo sapiens, UniProt P01308); assay: Inhibition of peptide and protein aggregation (insulin precipitation); assay type: physicochemical; conditions: insulin 0.4 mg/ml, surfactant 1.4 mg/ml, pH 6.8 or 7.4, 25 and 40° C., 2-12 weeks
Text: Inhibition of peptide and protein aggregation is crucial for the physical stability and safety, particularly for pharmaceutics for injection (injectabilia). Therefore, surfactants are normally applied as inhibitors of peptide and protein aggregation in such formulations. The ability, of a C16G8/14 mixture to inhibit peptide and protein aggregation in solution was investigated using insulin as model peptide.

insulin, sequence (P01308 25-54 limits assumed, species assumed): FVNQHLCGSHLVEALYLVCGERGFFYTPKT
insulin, sequence (P01308 90-110 limits assumed, species assumed): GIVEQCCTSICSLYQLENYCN

Row | SMILES | Krafft point [1] [°C] | Inhibition of insulin precipitation (visual inspection) (insulin)
1 | CCCCCCCCCCCCO[C@@H]1O[C@H](CO)[C@@H](O)[C@H](O)[C@H]1O [C12G1] | 38 | 
2 | CCCCCCCCCCCCCCO[C@@H]1O[C@H](CO)[C@@H](O[C@@H]2O[C@@H](CO)[C@H](O)[C@@H](O)[C@@H]2O)[C@H](O)[C@H]1O (stereo in doubt) [C14G2, tetradecylmaltoside] | 32 | unable to inhibit precipitation, even under non-accelerated conditions
